US20260250318A1, “COMPOSITIONS AND METHODS FOR CROSSING THE BLOOD BRAIN BARRIER” (VOYAGER THERAPEUTICS, INC., priority 2022, published 2026)

Columns and labels:
Conditions in all cases: synthetic library passage 3, intravenous, relative to wild-type AAV9
brain [1] = experiment: NGS fold enrichment of synthetic library (passage 3) in C57Bl/6 mice, first cross-species screen; assay type: in vivo
In short: (§1)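 Fold enrichment versus wild-type AAV9 was derived by NGS of RT-PCR-amplified RNA from nervous tissue, collected e.g. 28 days after IV dosing […]. The library (passage 3) was given to two NHPs aged 2-4 years and to 6-8-week BALB/c and C57Bl/6 mice (n=3 each).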

[2] = tested on: brain, spinal cord, and DRG of the NHPs; experiment: NGS fold enrichment of synthetic library (passage 3) in NHPs, first cross-species screen; assay type: in vivo, cynomolgus macaques (Macaca fascicularis)
In short: as §1

brain [3] = experiment: NGS fold enrichment of synthetic library (passage 3) in BALB/c mice, first cross-species screen; assay type: in vivo
In short: as §1

[4] = RNA from brain of C57Bl/6 mice, NGS
[5] = RNA from spinal cord of NHPs, NGS
[6] = RNA from brain of BALB/c mice, NGS

| Sequence | Fold enrichment over AAV9 in the brain of Mice (C57Bl/6) (brain [1]; RNA NGS, brain of C57Bl/6 mice) [fold] | Fold enrichment over AAV9 in the brain of NHPs ([2]; RNA NGS, brain of NHPs) [fold] | Fold enrichment over AAV9 in the spinal cord of NHPs ([2]; RNA NGS, spinal cord of NHPs) [fold] | Fold enrichment over AAV9 in the brain of Mice (BALB/c) (brain [3]; RNA NGS, brain of BALB/c mice) [fold] | Fold enrichment over AAV9 in the brain of Mice (C57Bl/6) (brain [1]; [4]) [fold] | Fold enrichment over AAV9 in the brain of NHPs ([2]; RNA from brain of NHPs, NGS) [fold] | Fold enrichment over AAV9 in the spinal cord of NHPs [2, 5] [fold] | Fold enrichment over AAV9 in the brain of Mice (BALB/c) (brain [3]; [6]) [fold] |
| --- | --- | --- | --- | --- | --- | --- | --- | --- |
| GSGQNHRPSVLQQT | 0.433 | 1.983 | 5.582 | 0.582 |  |  |  |  |
| GSGQNHRSADMQQT | 0.417 | 1.084 | 12.001 | 0.212 |  |  |  |  |
| GSGQNIGHSLPQQT |  |  |  |  | 0.740 | 1.264 | 6.183 | 0.478 |
| GSGQNKDHSTRRQT |  |  |  |  | 0.384 | 1.197 | 0.000 | 0.477 |
| GSGQNKQMLSGNTT |  |  |  |  | 1.074 | 1.410 | 2.219 | 0.404 |
| GSGQNLAGRMDQQT | 0.362 | 1.864 | 0.085 | 0.295 |  |  |  |  |
| GSGQNLGLLGAQQT |  |  |  |  | 0.524 | 1.161 | 1.458 | 0.226 |
| GSGQNLHSGLPQQT |  |  |  |  | 1.054 | 1.363 | 1.594 | 0.592 |
| GSGQNPIRGAMQQT |  |  |  |  | 1.296 | 1.126 | 1.327 | 0.427 |
| GSGQNPSFMRGQQT |  |  |  |  | 1.293 | 1.252 | 1.454 | 1.094 |
| GSGQNQAGHGPGQT | 1.040 | 1.670 | 2.861 | 0.887 |  |  |  |  |
| GSGQNQALVSMGQT |  |  |  |  | 0.987 | 1.255 | 1.876 | 0.560 |
| GSGQNQAMTHGDQT |  |  |  |  | 0.357 | 1.257 | 1.878 | 0.259 |
| GSGQNQANWVKVQT | 0.683 | 1.059 | 0.126 | 0.532 |  |  |  |  |
| GSGQNQAVHNKSQT | 1.465 | 1.956 | 3.791 | 1.083 |  |  |  |  |
| GSGQNQDHQNKQQT |  |  |  |  | 0.510 | 1.308 | 1.470 | 0.761 |
| GSGQNQGLLSSPQT |  |  |  |  | 0.707 | 1.164 | 0.000 | 0.417 |
| GSGQNQGRAHPMQT | 0.684 | 1.007 | 2.364 | 0.453 |  |  |  |  |
| GSGQNQGTVYPNQT |  |  |  |  | 0.835 | 1.358 | 7.648 | 0.815 |
| GSGQNQHHSVSQQT | 0.605 | 1.623 | 3.700 | 0.334 |  |  |  |  |

| Sequence | Fold enrichment over AAV9 in the brain of Mice (C57Bl/6) (brain [1]; RNA NGS, brain of C57Bl/6 mice) [fold] | Fold enrichment over AAV9 in the brain of NHPs ([2]; RNA NGS, brain of NHPs) [fold] | Fold enrichment over AAV9 in the spinal cord of NHPs ([2]; RNA NGS, spinal cord of NHPs) [fold] | Fold enrichment over AAV9 in the brain of Mice (BALB/c) (brain [3]; RNA NGS, brain of BALB/c mice) [fold] | Fold enrichment over AAV9 in the brain of Mice (C57Bl/6) (brain [1]; [4]) [fold] | Fold enrichment over AAV9 in the brain of NHPs ([2]; RNA from brain of NHPs, NGS) [fold] | Fold enrichment over AAV9 in the spinal cord of NHPs [2, 5] [fold] | Fold enrichment over AAV9 in the brain of Mice (BALB/c) (brain [3]; [6]) [fold] |
| --- | --- | --- | --- | --- | --- | --- | --- | --- |
| GSGQNQHLSSFVQT | 1.090 | 1.013 | 0.110 | 0.364 |  |  |  |  |
| GSGQNQHSAPFNQT | 0.759 | 1.969 | 0.499 | 0.870 |  |  |  |  |
| GSGQNQHSAPNSQT | 1.187 | 2.134 | 4.143 | 0.731 |  |  |  |  |
| GSGQNQHSLGNYQT | 1.077 | 2.143 | 1.896 | 0.606 |  |  |  |  |
| GSGQNQHSLPAHRT |  |  |  |  | 0.911 | 1.361 | 0.700 | 0.742 |
| GSGQNQHSVHNDQT | 0.521 | 1.428 | 0.000 | 0.515 |  |  |  |  |
| GSGQNQHSVQVRQT | 0.782 | 1.116 | 1.909 | 0.916 |  |  |  |  |
| GSGQNQHYSLHKQT | 1.485 | 1.563 | 3.399 | 1.273 |  |  |  |  |
| GSGQNQKGMQPNQT |  |  |  |  | 0.775 | 1.326 | 3.139 | 1.059 |
| GSGQNQKILTLDQT | 0.291 | 1.080 | 0.371 | 0.314 |  |  |  |  |
| GSGQNQQALGSQRT | 1.419 | 1.695 | 1.934 | 0.562 |  |  |  |  |
| GSGQNQQALHNPHT | 0.638 | 1.553 | 0.664 | 0.213 |  |  |  |  |
| GSGQNQQAPHKKET |  |  |  |  | 0.994 | 1.180 | 0.598 | 0.689 |
| GSGQNQQARPLELT | 0.389 | 1.061 | 0.059 | 0.252 |  |  |  |  |
| GSGQNQQASGRQQT | 0.943 | 1.458 | 3.179 | 0.991 |  |  |  |  |
| GSGQNQQASLAMRT | 2.066 | 1.910 | 3.577 | 1.638 |  |  |  |  |
| GSGQNQQASLPSRT | 0.930 | 1.456 | 0.389 | 0.673 |  |  |  |  |
| GSGQNQQGTGVSHT |  |  |  |  | 1.417 | 1.371 | 4.295 | 0.749 |
| GSGQNQQGTLLHQT | 1.347 | 1.728 | 2.065 | 1.303 |  |  |  |  |
| GSGQNQQHANLNQT | 0.416 | 1.410 | 0.094 | 0.544 |  |  |  |  |
